Laboratory results: US20020137929A1, “1 - (3-heterocyclylphenyl) isothiourea, -isourea, -guanidine and -amidine herbicidal agents” (Intellectual Property Department, BASF Aktiengesellschaft, priority 1998, published 2002)

Experiments:
[1] = test system: IPOHE (Morningglory, Ivyleaf); assay: Postemergence herbicidal evaluation; assay type: in vivo, Ipomoea hederacea
Method in brief: (§1)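 Visual 0–9 rating versus control (stand, vigor, malformation, size, chlorosis, overall appearance), taken four to five weeks post-spray. Two-week-old seedlings received roughly 0.0156–0.500 kg/ha active in acetone/water (50/50) with 0.5% TWEEN 20 via nozzle at 40 psi.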

[2] = test system: AMBEL (Ragweed, Common); assay: Postemergence herbicidal evaluation; assay type: in vivo, Ambrosia artemisifolia
Method in brief: as §1

[3] = test system: ABUTH (Velvetleaf); assay: Preemergence herbicidal evaluation; assay type: in vivo, Abutilon theophrasti; details: rated 4-5 weeks after treatment
Method in brief: (§2)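 Test compound, dissolved in aqueous acetone, was sprayed over planted soil cups at an equivalent of about 0.0156 to 0.500 kg/ha; seeds had been mixed with potting soil. Greenhouse growth followed, with visual 0-9 scoring of injury at four to five weeks.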

[4] = test system: SAGPY (Arrowhead (Pygmaea)); assay: Preemergence weed control under flooded paddy conditions; assay type: in vivo, Sagittaria pygmaea; details: rated 3-4 weeks after treatment
Method in brief: (§3)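 Seeds or propagules sown in top 0.5 cm of silt loam soil, flooded 1.5 to 3 cm above surface throughout. Compound in 50/50 v/v aqueous/acetone pipetted into flood water at about 0.0313 to 0.500 kg/ha. Visual 0-9 rating versus control after three to four weeks in greenhouse.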

[5] = test system: GLXMAW (Soybean, Williams); assay: Preemergence herbicidal evaluation; assay type: in vivo, Glycine max, (L.) Merr. cv Williams; details: rated 4-5 weeks after treatment
Method in brief: as §2

[6] = test system: CASOB (Sicklepod); assay: Postemergence herbicidal evaluation; assay type: in vivo, Cassia obtusifolia
Method in brief: as §1

[7] = test system: TRZAWR (Wheat, Winter, cv Riband); assay: Preemergence herbicidal evaluation; assay type: in vivo, Triticum aestivum; details: rated 4-5 weeks after treatment
Method in brief: as §2

[8] = test system: GALAP (Galium); assay: Postemergence herbicidal evaluation; assay type: in vivo, Galium aparine
Method in brief: as §1

[9] = test system: ZEAMX (Corn, Field); assay: Preemergence herbicidal evaluation; assay type: in vivo, Zea mays; details: rated 4-5 weeks after treatment
Method in brief: as §2

[10] = test system: IPOHE (Morningglory, Ivyleaf); assay: Preemergence herbicidal evaluation; assay type: in vivo, Ipomoea hederacea; details: rated 4-5 weeks after treatment
Method in brief: as §2

[11] = test system: ECHCG (Barnyardgrass); assay: Preemergence herbicidal evaluation; assay type: in vivo, Echinochloa crus-galli; details: rated 4-5 weeks after treatment
Method in brief: as §2

[12] = test system: CYPIR (Rice Flatsedge); assay: Postemergence weed control under flooded paddy conditions; assay type: in vivo, Cyperus iria; details: postemergence weeds, rated 3 to 4 weeks after treatment
Method in brief: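 Flood-water application, about 0.0313–0.500 kg/ha a.i. in aqueous/acetone 50/50 v/v; water depth 1.5–3 cm throughout. Weeds 3–5 cm, rice 1.5–2.5 leaf. Greenhouse; 0–9 visual rating vs control at 3–4 wk.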

[13] = test system: MOOVA (Monochoria); assay: Preemergence weed control under flooded paddy conditions; assay type: in vivo, Monochoria vaginalis; details: rated 3-4 weeks after treatment
Method in brief: as §3

[14] = test system: CASOB (Sicklepod); assay: Preemergence herbicidal evaluation; assay type: in vivo, Cassia obtusifolia; details: rated 4-5 weeks after treatment
Method in brief: as §2

CCOC(=O)CN1C(=O)C(CC(=O)OC(C)C)SC1=Nc1cc(-n2c(=O)cc(C(F)(F)F)n(C)c2=O)c(F)cc1Cl (centres unmarked) [Compound 60, 2-{{2-Chloro-5-[3,6-dihydro-3-methyl-2,6-dioxo-4-(trifluoromethyl)-1(2H)-pyrimidinyl]-4-fluoro-phenyl}imino}-4-oxo-3,5-thiazolidinediacetic acid, 3-ethyl isopropyl ester]
6.0: Preemergence herbicidal rating GLXMAW ([5]; rate 0.5000 kg/ha) | Herbicidal rating CYPIR ([12]; Rate 0.1250 kg/ha) | Herbicidal rating CYPIR ([12]; Rate 0.2500 kg/ha)
7.0: Postemergence herbicidal rating AMBEL ([2]; Rate 0.0158 kg/ha) | Preemergence herbicidal rating ABUTH ([3]; rate 0.0625 kg/ha)
2.0: Preemergence herbicidal rating ABUTH ([3]; rate 0.0156 kg/ha) | Postemergence herbicidal rating GALAP ([8]; Rate 0.0315 kg/ha) | Preemergence herbicidal rating IPOHE ([10]; rate 0.1250 kg/ha) | Preemergence herbicidal rating ECHCG ([11]; rate 0.5000 kg/ha)
1.0: Preemergence herbicidal rating GLXMAW ([5]; rate 0.0156 kg/ha) | Preemergence herbicidal rating TRZAWR ([7]; rate 0.1250 kg/ha) | Preemergence herbicidal rating TRZAWR ([7]; rate 0.2500 kg/ha) | Preemergence herbicidal rating CASOB ([14]; rate 0.1250 kg/ha)
9.0: Postemergence herbicidal rating IPOHE ([1]; Rate 0.0158 kg/ha) | Postemergence herbicidal rating IPOHE ([1]; Rate 0.0315 kg/ha) | Postemergence herbicidal rating IPOHE ([1]; Rate 0.0630 kg/ha) | Postemergence herbicidal rating AMBEL ([2]; Rate 0.0315 kg/ha) | Postemergence herbicidal rating AMBEL ([2]; Rate 0.0630 kg/ha) | Preemergence herbicidal rating ABUTH ([3]; rate 0.0313 kg/ha) | Preemergence herbicidal rating ABUTH ([3]; rate 0.1250 kg/ha) | Preemergence herbicidal rating ABUTH ([3]; rate 0.2500 kg/ha) | Preemergence herbicidal rating ABUTH ([3]; rate 0.5000 kg/ha) | SAGPY herbicidal effect rating ([4]; 0.1250 kg/ha) | SAGPY herbicidal effect rating ([4]; 0.2500 kg/ha) | Preemergence herbicidal rating IPOHE ([10]; rate 0.5000 kg/ha) | MOOVA herbicidal effect rating ([13]; 0.0313 kg/ha) | MOOVA herbicidal effect rating ([13]; 0.0625 kg/ha) | MOOVA herbicidal effect rating ([13]; 0.1250 kg/ha) | MOOVA herbicidal effect rating ([13]; 0.2500 kg/ha)
4.0: SAGPY herbicidal effect rating ([4]; 0.0625 kg/ha) | Preemergence herbicidal rating CASOB ([14]; rate 0.5000 kg/ha)
0.5: Preemergence herbicidal rating GLXMAW ([5]; rate 0.0313 kg/ha) | Preemergence herbicidal rating ZEAMX ([9]; rate 0.0625 kg/ha) | Preemergence herbicidal rating ECHCG ([11]; rate 0.2500 kg/ha)
8.0: Preemergence herbicidal rating ZEAMX ([9]; rate 0.5000 kg/ha)
3.5: Preemergence herbicidal rating GLXMAW ([5]; rate 0.2500 kg/ha)
1.5: Preemergence herbicidal rating GLXMAW ([5]; rate 0.0625 kg/ha) | Preemergence herbicidal rating ZEAMX ([9]; rate 0.1250 kg/ha)
5.0: Postemergence herbicidal rating GALAP ([8]; Rate 0.0630 kg/ha) | Preemergence herbicidal rating IPOHE ([10]; rate 0.2500 kg/ha)
0.0: Postemergence herbicidal rating CASOB ([6]; Rate 0.0158 kg/ha) | Postemergence herbicidal rating CASOB ([6]; Rate 0.0315 kg/ha) | Preemergence herbicidal rating TRZAWR ([7]; rate 0.0156 kg/ha) | Preemergence herbicidal rating TRZAWR ([7]; rate 0.0313 kg/ha) | Preemergence herbicidal rating TRZAWR ([7]; rate 0.0625 kg/ha) | Postemergence herbicidal rating GALAP ([8]; Rate 0.0158 kg/ha) | Preemergence herbicidal rating ZEAMX ([9]; rate 0.0156 kg/ha) | Preemergence herbicidal rating ZEAMX ([9]; rate 0.0313 kg/ha) | Preemergence herbicidal rating IPOHE ([10]; rate 0.0156 kg/ha) | Preemergence herbicidal rating IPOHE ([10]; rate 0.0313 kg/ha) | Preemergence herbicidal rating IPOHE ([10]; rate 0.0625 kg/ha) | Preemergence herbicidal rating ECHCG ([11]; rate 0.0156 kg/ha) | Preemergence herbicidal rating ECHCG ([11]; rate 0.0313 kg/ha) | Preemergence herbicidal rating ECHCG ([11]; rate 0.0625 kg/ha) | Preemergence herbicidal rating ECHCG ([11]; rate 0.1250 kg/ha) | Preemergence herbicidal rating CASOB ([14]; rate 0.0156 kg/ha) | Preemergence herbicidal rating CASOB ([14]; rate 0.0313 kg/ha) | Preemergence herbicidal rating CASOB ([14]; rate 0.0625 kg/ha)
5.5: Preemergence herbicidal rating CASOB ([14]; rate 0.2500 kg/ha)
3.0: SAGPY herbicidal effect rating ([4]; 0.0313 kg/ha) | Preemergence herbicidal rating GLXMAW ([5]; rate 0.1250 kg/ha) | Postemergence herbicidal rating CASOB ([6]; Rate 0.0630 kg/ha) | Preemergence herbicidal rating ZEAMX ([9]; rate 0.2500 kg/ha) | Herbicidal rating CYPIR ([12]; Rate 0.0313 kg/ha) | Herbicidal rating CYPIR ([12]; Rate 0.0625 kg/ha)
